Key:
Assay type in all cases: functional
Rattus norvegicus [1] = test: 40% inhibition of induced edema in the rat mycobacterium foot-pad edema test
Rattus norvegicus [2] = test: Inhibition of rat carrageenan induced foot-pad edema at a dose of 30 mg/kg on peroral administration; settings: route oral
Rattus norvegicus [3] = test: Inhibition of rat carrageenan induced foot-pad edema at a dose of 10 mg/kg on peroral administration; settings: route oral

In the case of Cc1ccc(Cl)c(Nc2ccccc2C(=O)[O-])c1Cl.O.[Na+] [MECLOFENAMATE SODIUM], the ID40 (Rattus norvegicus [1]) is reported as 0.4 mg/kg, the inhibition in vivo at 30 mg/kg (Rattus norvegicus [2]) is reported as 41% and the inhibition in vivo at 10 mg/kg (Rattus norvegicus [3]) is reported as 34%.
